These results are taken from patent US20230271954A1 (Gossamer Bio Services, Inc., priority 2020, published 2023).

One assay has as its target DGKα (Homo sapiens, UniProt P23743). As to the kind of experiment: DGKα biochemical assay (ADP-Glo). Conditions: read-out: DGK α IC50. Put shortly: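 ADP-Glo kinase assay using OAG/PS (1:2) lipid substrate, sonicated, in HEPES pH 7.0 buffer with MgCl2, CaCl2, DTT, BSA, Triton X-100. Enzyme preincubated with compound 30 min at RT; substrate with ATP (DGKα: 400 μM) added, 45 min RT. Luminescence read; % inhibition vs DMSO and no-enzyme controls.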
A general note: ADP-Glo turns the ADP formed in a reaction into a luminescent signal.

In the next assay the target is T1, DGKζ (Homo sapiens, UniProt Q13574).
T1 construct: purchased Carna 12-110
The experiment in a line: DGKζ biochemical assay (ADP-Glo). Conditions: read-out: DGK ζ IC50.

T1 sequence (Q13574 1-929 isoform Q13574-4): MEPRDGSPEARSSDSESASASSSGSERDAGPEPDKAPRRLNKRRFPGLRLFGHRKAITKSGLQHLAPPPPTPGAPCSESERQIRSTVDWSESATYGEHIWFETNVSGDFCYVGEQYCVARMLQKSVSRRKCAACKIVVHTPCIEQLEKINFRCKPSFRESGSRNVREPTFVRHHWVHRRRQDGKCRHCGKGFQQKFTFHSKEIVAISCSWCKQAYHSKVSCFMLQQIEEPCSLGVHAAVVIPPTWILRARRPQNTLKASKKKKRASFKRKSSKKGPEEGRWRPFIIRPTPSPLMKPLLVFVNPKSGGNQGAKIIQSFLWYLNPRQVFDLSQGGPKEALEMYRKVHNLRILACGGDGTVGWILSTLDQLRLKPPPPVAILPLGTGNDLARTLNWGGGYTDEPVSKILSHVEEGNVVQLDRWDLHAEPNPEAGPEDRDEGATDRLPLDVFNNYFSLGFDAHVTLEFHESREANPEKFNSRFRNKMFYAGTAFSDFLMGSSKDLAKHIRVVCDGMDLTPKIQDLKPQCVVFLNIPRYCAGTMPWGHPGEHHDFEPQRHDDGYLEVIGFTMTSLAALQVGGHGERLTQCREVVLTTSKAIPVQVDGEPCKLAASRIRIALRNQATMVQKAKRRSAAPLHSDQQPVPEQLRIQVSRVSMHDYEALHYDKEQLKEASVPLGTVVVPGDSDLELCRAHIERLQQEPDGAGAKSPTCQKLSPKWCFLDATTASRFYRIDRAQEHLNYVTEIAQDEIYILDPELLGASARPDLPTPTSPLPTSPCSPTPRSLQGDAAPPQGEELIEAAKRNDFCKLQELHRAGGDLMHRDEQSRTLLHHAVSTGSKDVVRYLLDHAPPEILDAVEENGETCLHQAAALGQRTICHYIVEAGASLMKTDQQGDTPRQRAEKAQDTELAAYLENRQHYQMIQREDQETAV
Sequence of DGKα (P23743 whole entry): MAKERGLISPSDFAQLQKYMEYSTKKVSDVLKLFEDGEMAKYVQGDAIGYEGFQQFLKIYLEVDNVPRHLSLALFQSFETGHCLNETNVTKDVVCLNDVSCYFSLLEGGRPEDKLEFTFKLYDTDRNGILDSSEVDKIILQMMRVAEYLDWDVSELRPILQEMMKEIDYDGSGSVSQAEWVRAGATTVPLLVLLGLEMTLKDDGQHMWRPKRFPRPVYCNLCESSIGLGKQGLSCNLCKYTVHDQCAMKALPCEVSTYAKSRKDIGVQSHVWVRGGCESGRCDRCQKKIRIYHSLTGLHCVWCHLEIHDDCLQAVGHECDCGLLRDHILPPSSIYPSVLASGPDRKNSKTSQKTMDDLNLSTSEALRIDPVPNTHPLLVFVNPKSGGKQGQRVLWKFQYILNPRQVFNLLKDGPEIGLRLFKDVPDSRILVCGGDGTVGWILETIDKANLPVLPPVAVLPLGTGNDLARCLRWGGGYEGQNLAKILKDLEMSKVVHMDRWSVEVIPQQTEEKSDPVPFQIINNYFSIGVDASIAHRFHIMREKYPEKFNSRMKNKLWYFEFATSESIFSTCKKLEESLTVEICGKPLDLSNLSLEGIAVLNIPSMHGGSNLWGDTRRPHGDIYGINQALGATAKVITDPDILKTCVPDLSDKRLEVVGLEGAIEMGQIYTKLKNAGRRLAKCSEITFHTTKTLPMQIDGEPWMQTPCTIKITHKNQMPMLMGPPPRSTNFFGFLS

The term IC50 denotes the midpoint of a concentration-inhibition curve. With `Cn1c(=O)c(C#N)c(N(C)[C@H]2CC[C@H](N(CC3CCC3)c3ccc(F)cc3C(F)F)CC2)c2nc(C#N)ccc21` [Example 179, trans-8-((-4-((cyclobutylmethyl)(2-(difluoromethyl)-4-fluorophenyl)amino)cyclohexyl)(methyl)amino)-5-methyl-6-oxo-5,6-dihydro-1,5-naphthyridine-2,7-dicarbonitrile], the IC50 at DGKα is 0.01 to 0.1 µM; at DGKζ, ≥ 1 µM.

In the case of `Cn1c(=O)c(C#N)c(N(C)[C@H]2CC[C@H](N(CC3COC3)c3ccc(F)cc3O)CC2)c2nc(Cl)ccc21` [Example 3O, trans-6-chloro-4-((4-((4-fluoro-2-hydroxyphenyl)(oxetan-3-ylmethyl)amino)cyclohexyl)(methyl)amino)-1-methyl-2-oxo-1,2-dihydro-1,5-naphthyridine-3-carbonitrile], the figures for the concentration for half-maximal inhibition (IC50) at DGKα and on DGKζ were 0.1 to 1 µM and ≥ 1 µM, respectively.

Consider `Cn1c(=O)c(C#N)c(N[C@H]2CC[C@H](N(CC3CC3)c3ccccc3)CC2)c2nc(Cl)ccc21` [Example 3B, trans-6-Chloro-4-((4-((cyclopropylmethyl)(phenyl)amino)cyclohexyl)amino)-1-methyl-2-oxo-1,2-dihydro-1,5-naphthyridine-3-carbonitrile], for which the concentration for half-maximal inhibition (IC50) was < 0.01 µM at DGKα and ≥ 1 µM at DGKζ.

As to `CC(C)CN(c1ccc(F)cc1)[C@H]1CC[C@@H](N(C)c2c(C#N)c(=O)n(C)c3ccc(C#N)nc23)CC1` [Example 52, cis-8-((-4-((4-fluorophenyl)(isobutyl)amino)cyclohexyl)(methyl)amino)-5-methyl-6-oxo-5,6-dihydro-1,5-naphthyridine-2,7-dicarbonitrile], the IC50 at DGKα was < 0.01 µM; on DGKζ, 0.01 to 0.1 µM.

For `Cn1c(=O)cc(N(C)[C@H]2CC[C@@H](N(c3ccc(F)cc3)C3CC3)CC2)c2nc(C#N)ccc21` [Example 49, cis-8-((4-(cyclopropyl(4-fluorophenyl)amino)cyclohexyl)(methyl)amino)-5-methyl-6-oxo-5,6-dihydro-1,5-naphthyridine-2-carbonitrile], the figures for the half-maximal inhibitory concentration (IC50) on DGKα and at DGKζ were < 0.01 µM and 0.1 to 1 µM, respectively.

With `Cn1c(=O)c(C#N)c(N(C)[C@H]2CC[C@@H](N(CC3CC3)c3cccc4c3oc(=O)n4C)CC2)c2nc(C#N)ccc21` [Example 200, cis-8-((-4-((cyclopropylmethyl)(3-methyl-2-oxo-2,3-dihydrobenzo[d]oxazol-7-yl)amino)cyclohexyl) (methyl)amino)-5-methyl-6-oxo-5,6-dihydro-1,5-naphthyridine-2,7-dicarbonitrile], the IC50 at DGKα and on DGKζ was ≥ 1 µM throughout.

`O=C(N[C@H]1CC[C@@H](N(CC2CC2)c2ccccc2)CC1)c1c[nH]c2cccnc12` [Example 4F, cis-N-(4-((Cyclopropylmethyl)(phenyl)amino)cyclohexyl)-1H-pyrrolo[3,2-b]pyridine-3-carboxamide]: the IC50 at DGKα and at DGKζ was ≥ 1 µM in each case.

`Cn1c(=O)c(C#N)c(N(C)[C@H]2CC[C@H](N(CC3CC3)c3cccc(F)c3)CC2)c2nc(Cl)ccc21` [Example 23, trans-6-chloro-4-((4-((cyclopropylmethyl)(3-fluorophenyl)amino)cyclohexyl)(methyl)amino)-1-methyl-2-oxo-1,2-dihydro-1,5-naphthyridine-3-carbonitrile]: the IC50 lay within 0.01 to 0.1 µM at DGKα and 0.1 to 1 µM on DGKζ.

For the molecule `Cn1c(=O)cc(N(C)[C@H]2CC[C@@H](N(CC3CC3)c3cc(F)cc(F)c3)CC2)c2nc(C#N)ccc21` [Example 82], the figures for the IC50 at DGKα and at DGKζ were 0.01 to 0.1 µM and 0.1 to 1 µM, respectively.

In the case of `COc1cc(F)ccc1N(C1CCC1)[C@H]1CC[C@@H](N(C)c2c(C#N)c(=O)n(C)c3ccc(Cl)nc23)CC1` [Example 17, cis-6-chloro-4-((4-(cyclobutyl(4-fluoro-2-methoxyphenyl)amino)cyclohexyl)(methyl)amino)-1-methyl-2-oxo-1,2-dihydro-1,5-naphthyridine-3-carbonitrile], the IC50 on DGKα and at DGKζ was ≥ 1 µM in each case.
